# According to patent US4677113A, “Di-t-butylphenols substituted by a thenoyl group” (Riker Laboratories, Inc., priority 1986, dated 1987):
# Where two headings read alike, the source gives them in different places.
# What was measured:
# [1] = tested on: bronchoconstriction in sensitized guinea pigs; experiment: antigen-induced bronchoconstriction in sensitized guinea pigs (frequency of notching); format: in vivo, guinea pig; settings: Cavia porcellus, male Hartley guinea pigs pretreated with antihistamine, read-out: ED40, inhibition of bronchoconstriction
# Procedure: Preferably, bronchoconstriction in sensitized guinea pigs is measured upon antigen challenge. This test is described in broad terms by Piechuta, et al., Immunology, 38, 385 (1979) and more specifically by Hammerbeck and Swingle, Int. Archs. Allergy Appl. Immun. 74, 84-90 (1984), both references being incorporated herein by reference. It was used in a modified form as follows: Male Hartley guinea pigs (250-600 g) which were pretreated with an antihistamine, e.g., chlorpheniramine and then dosed intraperitoneally with a compound of the invention at a level of about 1 to 40 mg/kg 15 minutes prior to challenge or orally at the same dose 30 minutes prior to challenge were aerosol challenged with either water or ovalbumim at a concentration of 10 mg per ml. The animals were placed under an inverted dessicator jar (18×14 cm) with a constant flow of air coming into the chamber from a compressed-air source to prevent hypoxia. Air flow leaving the chamber and fluctuations due to respiration were monitored through a separate outlet with a Fleisch No. 0000 pneumotachograph (available from Beckman Instruments, Inc., Schiller Park, Ill.) coupled to a Beckman Type R dynograph (available from Beckman Instruments, Inc.). Aerosolization through a third outlet was made via a No. 4 DeVilbiss nebulizer (available from the DeVilbiss Company, Somerset, PA) for 90 seconds at 150 mm Hg. […]
# [2] = tested on: leukotriene synthesis in homogenized rat basophil leukemia cells; experiment: cell free leukotriene biosynthesis system (homogenized rat basophil leukemia cells, radioimmunoassay); format: biochemical; settings: synthesis initiated by arachidonate; drug preincubated five minutes; read-out: IC50, leukotriene synthesis inhibition
# Procedure: This test utilizes the cell free leukotriene biosynthesis system of M. Steinhoff et al. Biochim. Acta. 68, 28 (1980), incorporated herein by reference, which consists of homogenized rat basophil leukemia cells. Leukotriene synthesis is initiated by the addition of arachidonate. Solutions are centrifuged and supernatants assayed using a radioimmunoassay developed as described by Aeringhaus et al. FEBS Letter 146, 111-114. Drugs are dissolved in ethanol or dimethyl sulfoxide and then preincubated for five minutes. Phenidone is used as a positive control.
smiles,measurement,setting,value
"CC(C)(C)c1cc(C(=O)c2ccc(C(=O)O)s2)cc(C(C)(C)C)c1O [5-(3',5'-di-t-butyl-4'-hydroxybenzoyl)thiophene-2-carboxylic acid]",ED40,"[1]; ip, 0.25 h, administered intraperitoneally 15 minutes prior to ovalbumin aerosol challenge",< 10 mg/kg
same,ED40,"[1]; po, 0.5 h, administered orally 30 minutes prior to ovalbumin aerosol challenge",< 25 mg/kg
same,IC50,[2],15 µM
